One may read the solubility as the dissolved amount per volume that the medium holds. Low values mean little dissolved substance, high ones much dissolved substance. Broadly, the Ki is the equilibrium dissociation constant of an inhibitor or competing ligand from its target. Lower therefore signals higher affinity.

Molecules are shown by their SMILES. Values after ≈ are worked out from the molar mass of the structure shown. Positions of bridges follow the written chain, without caps; N, C: chain ends. Non-standard residues stand in square brackets, D forms with d. Residues, ends and D or L forms follow the SMILES beside them. Groups on a side chain read outwards from the residue. *: point of attachment. Palmitoyl(16-(5-tetrazolyl)) = O=C(CCCCCCCCCCCCCCCc1nnn[nH]1)*; Lys(CH2CO2H)2 = N[C@@H](CCCCN(CC(=O)O)CC(=O)O)C(=O)O; C18 diacid = O=C(O)CCCCCCCCCCCCCCCCC(=O)*; NTA = O=C(O)CN(CC(=O)O)CC(=O)*; Orn = NCCC[C@H](N)C(=O)O; Dap = NC[C@H](N)C(=O)O; AEEA = NCCOCCOCC(=O)O

One series is described as follows: physchem. The procedure: From a stock solution in vehicle, either H2O or 10 mM phosphate, containing 1 mg (as weighed) compound per ml, 8-11 aliquots are withdrawn and pH-adjusted individually with HCl/NaOH, to cover the whole pH range.
Another series has as its target human MC4 receptor (Homo sapiens, UniProt P32245). The series can be described thus: biochemical. The protocol:
Assay (V)—Melanocortin Receptor 4 (MC4) Binding Assay
In Vitro ^125NDP-α-MSH Binding to Recombinant BHK Cells Expressing Human MC4 Receptor (Filtration Assay).
The assay was performed in 5 ml minisorb vials (Sarstedt No. 55.526) or in 96-well filter-plates (Millipore MADVN 6550), and using BHK cells expressing the human MC4 receptor using BHK cells stably expressing the human MC4 receptor. The membranes were prepared from frozen or fresh cells that were homogenized in 20 mM HEPES pH 7.1, 5 mM MgCl2 and 1 mg/ml bacitracin and centrifuged at 15000 rpm at 4° C., 10 min in a Sorvall RC 5B plus, SS-34 rotor. The supernatant was discarded, and the pellets were re-suspended in buffer, homogenized and centrifuged two more times. The final pellets were resuspended in the buffer mentioned above, and the protein concentration was measured and adjusted with buffer to 14 to 17 mg/ml and the membrane preparation were kept at −80° C. until assay. The assay was run directly on a dilution of this cell membrane suspension, without any further preparation. The BHK cell membranes are kept at −80° C. until assay, and the assay is run directly on a dilution of this cell membrane suspension, without further preparation. The suspension is diluted to give maximally 10% specific binding, i.e. to approx. 50-100 fold dilution. The assay was performed in a total volume of 200 μl: 50 μl of cell suspension, 50 μl of ^125NDP-α-MSH (≈79 pM in final concentration), 50 μl of test compound and 50 μl binding buffer (pH 7) mixed and incubated for 2 h at 25° C. [binding buffer: 25 mM HEPES, pH 7.0, 1 mM CaCl2, 1 mM MgSO4, 1 mM EGTA, 0.02% Bacitracin, 0.005% Tween™ 20 and 0.1% HSA or, alternatively, 0.1% ovalbumin (Sigma; catalogue No. A-5503)]. Test compounds were dissolved in DMSO and diluted in binding buffer. Radiolabelled ligand and membranes were diluted in binding buffer. The incubation was stopped by dilution with 2×100 μl ice-cold 0.9% NaCl. The radioactivity retained on the filters was counted using a Cobra II auto gamma counter.
The data were analysed by non-linear regression analysis of binding curves, using the Windows™ program GraphPad™ Prism (GraphPad Software, USA).

Chain of human MC4 receptor (P32245 whole entry): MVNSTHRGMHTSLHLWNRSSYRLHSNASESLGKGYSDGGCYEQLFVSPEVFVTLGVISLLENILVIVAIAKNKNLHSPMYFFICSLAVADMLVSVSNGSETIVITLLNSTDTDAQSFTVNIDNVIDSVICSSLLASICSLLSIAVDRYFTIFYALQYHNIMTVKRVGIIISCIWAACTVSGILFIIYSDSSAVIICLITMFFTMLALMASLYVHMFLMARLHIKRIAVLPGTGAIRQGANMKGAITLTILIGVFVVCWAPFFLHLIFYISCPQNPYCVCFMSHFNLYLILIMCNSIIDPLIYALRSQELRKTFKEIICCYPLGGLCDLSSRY

As to `CC(=O)N[C@H]1CCCNC(=O)C[C@@H](C(=O)N2CCC[C@H]2C(=O)N[C@@H](CO)C(=O)N[C@@H](CO)C(=O)N[C@@H](CO)C(=O)N[C@@H](CCCCN(CC(=O)O)CC(=O)O)C(=O)N[C@@H](CO)C(=O)N[C@@H](CO)C(=O)N[C@@H](CCCCNC(=O)COCCOCCNC(=O)CCCCCCCCCCCCCCCc2nnn[nH]2)C(N)=O)NC(=O)[C@H](Cc2c[nH]c3ccccc23)NC(=O)[C@H](CCCNC(=N)N)NC(=O)[C@@H](Cc2ccccc2)NC(=O)[C@H](Cc2c[nH]cn2)NC1=O` [Example 28, Ac-c[Orn-His-D-Phe-Arg-Trp-Asp]-Pro-Ser-Ser-Ser-Lys(biscarboxymethyl)-Ser-Ser-Lys[(2-{2-[16-(tetrazol-5-yl)hexadecanoylamino]ethoxy}ethoxy)acetyl]-NH2] (Ac-[Orn]H[dF]RWDPSSS[Lys(CH2CO2H)2]SSK([AEEA-Palmitoyl(16-(5-tetrazolyl))])-NH2; lactam 1-6), the solubility turned out to be 71 µM (≈ 160 µg/mL) in “physchem” (pH 4.8, Solubility Conc., pH 4.8, vehicle 10 mM phosphate); 40 µM (≈ 90.1 µg/mL) in the series “physchem” (pH 5.6, Solubility Conc., pH 5.6, vehicle 10 mM phosphate); 59 µM (≈ 133 µg/mL) in “physchem” (pH 6.4, Solubility Conc., pH 6.4, vehicle 10 mM phosphate); 126 µM (≈ 284 µg/mL) in “physchem” (pH 6.7, Solubility Conc., pH 6.7, vehicle 10 mM phosphate); 382 µM (≈ 861 µg/mL) in “physchem” (pH 7, Solubility Conc., pH 7.0, vehicle 10 mM phosphate); 406 µM (≈ 915 µg/mL) in “physchem” (pH 7.2, Solubility Conc., pH 7.2, vehicle 10 mM phosphate). The solubility in the series “physchem” (pH 7.5, Solubility Conc., pH 7.5, vehicle 10 mM phosphate) is 410 µM (≈ 924 µg/mL); in the series “physchem” (pH 7.8, Solubility Conc., pH 7.8, vehicle 10 mM phosphate), 433 µM (≈ 976 µg/mL); in the series “physchem” (pH 8.1, Solubility Conc., pH 8.1, vehicle 10 mM phosphate), 415 µM (≈ 935 µg/mL). Also, the Ki at human MC4 receptor is 0.9 nM.

Turning to `CC(=O)N[C@H]1CCCNC(=O)C[C@@H](C(=O)N2CCC[C@H]2C(=O)N2CCC[C@H]2C(=O)N[C@@H](CCCNC(=N)N)C(=O)N[C@@H](CCC(=O)O)C(=O)N[C@@H](CCCCN(CC(=O)O)CC(=O)O)C(=O)N[C@@H](CCCCNC(=O)COCCOCCNC(=O)CCCCCCCCCCCCCCCCC(=O)O)C(N)=O)NC(=O)[C@H](Cc2c[nH]c3ccccc23)NC(=O)[C@H](CCCNC(=N)N)NC(=O)[C@@H](Cc2ccccc2)NC(=O)[C@H](Cc2c[nH]cn2)NC1=O` [Example 34, Ac-c[Orn-His-D-Phe-Arg-Trp-Asp]-Pro-Pro-Arg-Glu-Lys(biscarboxymethyl)-Lys({2-[2-(17-carboxyheptadecanoylamino)ethoxy]ethoxy}acetyl)-NH2] (Ac-[Orn]H[dF]RWDPPRE[Lys(CH2CO2H)2]K([AEEA-C18 diacid])-NH2; lactam 1-6), the solubility amounted to 27 µM (≈ 59.1 µg/mL) in the series “physchem” (pH 5.5, Solubility Conc.); 42 µM (≈ 92 µg/mL) in the series “physchem” (pH 6.3, Solubility Conc.); 62 µM (≈ 136 µg/mL) in “physchem” (pH 6.6, Solubility Conc.); 87 µM (≈ 191 µg/mL) in the series “physchem” (pH 6.9, Solubility Conc.); 165 µM (≈ 361 µg/mL) in the series “physchem” (pH 7.2, Solubility Conc.); 261 µM (≈ 572 µg/mL) in the series “physchem” (pH 7.3, Solubility Conc.). Besides, the solubility worked out at 355 µM (≈ 778 µg/mL) in the series “physchem” (pH 7.4, Solubility Conc.); 420 µM (≈ 920 µg/mL) in the series “physchem” (pH 7.8, Solubility Conc.); 360 µM (≈ 789 µg/mL) in “physchem” (pH 8, Solubility Conc.). Moreover, the Ki on human MC4 receptor turned out to be 0.8 nM.

On to `CC(=O)N[C@H]1CC(=O)NC[C@@H](C(=O)N2CCC[C@H]2C(=O)N2CCC[C@H]2C(=O)N[C@@H](CCCNC(=N)N)C(=O)N[C@@H](CC(=O)O)C(=O)N[C@@H](CCCCNC(=O)CN(CC(=O)O)CC(=O)O)C(=O)N[C@@H](CCCCNC(=O)COCCOCCNC(=O)CCCCCCCCCCCCCCCc2nnn[nH]2)C(N)=O)NC(=O)[C@H](Cc2c[nH]c3ccccc23)NC(=O)[C@H](CCCNC(=N)N)NC(=O)[C@@H](Cc2ccccc2)NC(=O)[C@H](Cc2c[nH]cn2)NC1=O` [Example 24, Ac-c[Asp-His-D-Phe-Arg-Trp-Dap]-Pro-Pro-Arg-Asp-Lys(BCMA)-Lys[(2-{2-[16-(tetrazol-5-yl)hexadecanoylamino]ethoxy}ethoxy)acetyl]-NH2] (Ac-DH[dF]RW[Dap]PPRDK(NTA)K([AEEA-Palmitoyl(16-(5-tetrazolyl))])-NH2; lactam 1-6), for which affinity at human MC4 receptor was put at a Ki of 107 nM.

(Values after patent US20130012432A1, “Peptides for Treatment of Obesity” (Novo Nordisk A/S, priority 2010, published 2013).)
